Results as given in PMC12528448, “Resistance to CDK7 inhibitors directed by acquired mutation of a conserved residue in cancer cells” (The EMBO Journal, 2025).
Values joined by “and” are separate entries in the source; they are usually repeats but may differ in a detail not shown here. Equal entries are not always repeated.

Tests used:
CDK7-WT = molecular target: T1, CDK7-WT (Homo sapiens, UniProt P50613); assay: NanoBRET Target Engagement assay, K-10 tracer displacement in HEK293 cells; type: binding; conditions: CDK7 WT, replicates N1-N3
T1 construct: expressed in transfected cells; host or cells: HEK293
Protocol: (§1) Energy transfer between the NanoLuc fusion protein and a cell-permeable fluorescent energy transfer probe facilitates quantitative determination of target engagement in live cells (Wells et al, [2020]). Assays were conducted according to this previous report, using the optimal CDK7 probe, K-10, at a concentration of 0.5 µM.
(§2) CDK4, CDK6 and CDK7 and the respective mutant sequences, obtained as synthesised DNA fragments from IDT (Leuven), were cloned by HiFi DNA assembly (New England Biolabs) into the pNLF1-N NanoLuc protein fusion vector (Promega). HEK293 cells, transiently transfected with NanoLuc-CDK fusion constructs, were used for activity determination, utilising the NanoBRET Target Engagement Intracellular Kinase Assay. A CCND1 expression construct was co-transfected with the NanoLuc-CDK4 and NanoLuc-CDK6 fusion constructs. The recommended cell-permeable energy transfer probe, K-10, was used to assess target engagement, as detailed in the manufacturer’s methods (Promega). […] The BRET ratio (mBU) was calculated as acceptor emission (590–610 nm)/donor emission (410–490 nm) × 1000. The mBU values were plotted against the energy probe concentrations to determine maximal binding (Bmax) and Kd values. BRET signal competition by CDK inhibitors was used to determine compound binding to WT and mutant CDKs. […] Inhibitor binding was determined using a fourfold dilution series. mBU values were plotted against test compound concentrations in the presence of K10 tracer. EC50 values were determined using nonlinear regression curve-fitting. Test compound occupancy (%) was calculated using the equation [1 − (x − z)/(y − z)] × 100, where x = mBU in the presence of the test compound and K-10 tracer, y = mBU with K-10 tracer and vehicle control, and z = mBU in the absence of the K-10 tracer or test compound (Wells et al, [2020]).

CDK7-D97N = molecular target: T2, CDK7-D97N (Homo sapiens, UniProt P50613, D97N); assay: as above; type: binding; conditions: CDK7 D97N, replicates N1-N3
T2 construct: expressed in transfected cells; host or cells: HEK293
Protocol: as §1, §2

22Rv1-SamR cells = assay: Growth assay (SRB), Samuraciclib-resistant 22Rv1; type: cell-based, human; conditions: for % Growth: 22Rv1 SamR, 4 days, biological reps
Protocol: (§3) To determine the IC50 of drug treatments on growth, cells were seeded in 96-well culture plates. Two days after seeding, the cells were treated with increasing concentrations of drugs and incubated for 4 days. Cell number was determined using the SRB assay (Skehan et al, [1990]), and IC50 values were calculated using non-linear regression curve fitting in GraphPad Prism v10. For all other growth experiments, cells were seeded into 96-well plates, and appropriate drugs were added 2 days after seeding. Cells were then incubated in an IncuCyte Zoom live-cell imager, with cell confluency measured every 6 h. Cell doubling times were determined by non-linear curve fitting (exponential growth equation) in GraphPad Prism v10.

MCF7-CDK7-D97N cells = assay: Growth assay (SRB), MCF7 CDK7-D97N knock-in; type: cell-based, human; conditions: 4 days; for % Growth: MCF7 CDK7 D99N, biological reps
Protocol: as §3
Alt-R^TM S.p. Cas9 nuclease V3, Alt-R CRISPR-Cas9 crRNA, TracrRNA and the donor templates were obtained from Integrated DNA Technologies. […] Cells were treated with 0.7 µM of Alt-R HDR Enhancer V2 to improve HRD efficiency. Sequences of the CRISPRs in the crRNA and the donor templates are shown in the Reagents and tools table. Donor templates were designed to include non-coding substitutions to aid genome DNA PCR for identifying knock-in events and to facilitate cloning; these substitutions are noted in the Reagents and tools table.

22Rv1 cells = assay: Growth assay (SRB), 22Rv1; type: cell-based, human; conditions: 22Rv1, 4 days, biological reps
Protocol: as §3

MCF7 cells = assay: Growth assay (SRB), MCF7; type: cell-based, human; conditions: for % Growth: biological reps
Protocol: as §3

T1 sequence (P50613 whole entry): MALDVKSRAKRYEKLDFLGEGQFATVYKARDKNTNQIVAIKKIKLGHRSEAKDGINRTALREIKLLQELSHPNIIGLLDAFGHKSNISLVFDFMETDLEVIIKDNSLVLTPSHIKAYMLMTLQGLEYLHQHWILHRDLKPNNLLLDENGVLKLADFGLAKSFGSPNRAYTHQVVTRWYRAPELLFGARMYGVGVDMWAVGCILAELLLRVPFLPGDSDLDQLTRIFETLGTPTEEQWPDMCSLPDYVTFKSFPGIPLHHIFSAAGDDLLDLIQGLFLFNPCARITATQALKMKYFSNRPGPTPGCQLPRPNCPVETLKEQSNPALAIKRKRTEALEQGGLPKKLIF
T2 sequence (P50613 whole entry D97N): as the sequence (P50613 whole entry) above, with D97N counted along it

- % Occupacy (CDK7-WT; Log10 Conc. (nM) 0.09): 16.74% and 4.33% and 5.86%
- % Occupacy (CDK7-WT; Log10 Conc. (nM) 0.69): 17.70% and 6.32% and 7.28%
- % Occupacy (CDK7-WT; Log10 Conc. (nM) 1.29): 29.22% and 3.65% and 10.56%
- % Occupacy (CDK7-WT; Log10 Conc. (nM) 1.89): 53.51% and 14.09% and 19.55%
- % Occupacy (CDK7-WT; Log10 Conc. (nM) 2.49): 85.19% and 65.85% and 67.10%
- % Occupacy (CDK7-WT; Log10 Conc. (nM) 3.10): 97.70% and 100.48% and 92.33%
- % Occupacy (CDK7-WT; Log10 Conc. (nM) 3.70): 102.14% and 100.08% and 100.97%
- % Occupacy (CDK7-WT; Log10 Conc. (nM) 4.30): 101.17% and 106.00% and 102.12%
- % Occupacy (CDK7-WT; Log10 Conc. (nM) -0.52): 21.00% and 8.28% and 9.27%
- % Occupacy (CDK7-WT; Log10 Conc. (nM) -1.12): 15.97% and 8.08% and 8.28%
- % Occupacy (CDK7-WT; Log10 Conc. (nM) -1.72): 12.78% and 7.38% and 8.51%
- % Occupacy (CDK7-D97N; Log10 Conc. (nM) 0.09): 9.16% and 2.67% and 0.07%
- % Occupacy (CDK7-D97N; Log10 Conc. (nM) 0.69): 13.92% and 3.61% and 4.36%
- % Occupacy (CDK7-D97N; Log10 Conc. (nM) 1.29): 29.03% and 9.81% and 4.02%
- % Occupacy (CDK7-D97N; Log10 Conc. (nM) 1.89): 74.11% and 30.96% and 26.31%
- % Occupacy (CDK7-D97N; Log10 Conc. (nM) 2.49): 95.10% and 79.08% and 80.38%
- % Occupacy (CDK7-D97N; Log10 Conc. (nM) 3.10): 97.98% and 96.38% and 96.98%
- % Occupacy (CDK7-D97N; Log10 Conc. (nM) 3.70): 98.68% and 99.58% and 99.12%
- % Occupacy (CDK7-D97N; Log10 Conc. (nM) 4.30): 99.99% and 100.77% and 101.05%
- % Occupacy (CDK7-D97N; Log10 Conc. (nM) -0.52): 6.83% and 2.53% and 1.19%
- % Occupacy (CDK7-D97N; Log10 Conc. (nM) -1.12): 11.58% and 4.35% and 1.55%
- % Occupacy (CDK7-D97N; Log10 Conc. (nM) -1.72): 7.10% and 3.74% and 2.78%
- IC50 (MCF7-CDK7-D97N cells; MCF7-CDK7-D97N, SRB): 68.7 nM
- IC50 (MCF7 cells; 4 days, SRB): 153 nM
Compound: CN(C)C/C=C/C(=O)Nc1ccc(C(=O)Nc2cccc(Nc3ncc(Cl)c(-c4c[nH]c5ccccc45)n3)c2)cc1 [THZ1]
- Sensitivity in growth assays (22Rv1-SamR cells; 22Rv1-SamR): remained sensitive
- % Growth (22Rv1-SamR cells; Log10 Conc. (nM) 0.09): 83.75% and 87.25%
- % Growth (22Rv1-SamR cells; Log10 Conc. (nM) 0.69): 68.41% and 67.61%
- % Growth (22Rv1-SamR cells; Log10 Conc. (nM) 1.29): 30.25% and 41.41%
- % Growth (22Rv1-SamR cells; Log10 Conc. (nM) 1.89): -7.69% and -2.73%
- % Growth (22Rv1-SamR cells; Log10 Conc. (nM) 2.49): -11.43% and -7.53%
- % Growth (22Rv1-SamR cells; Log10 Conc. (nM) 3.10): -11.82% and -8.43%
- % Growth (22Rv1-SamR cells; Log10 Conc. (nM) 3.70): -15.22% and -10.53%
- % Growth (22Rv1-SamR cells; Log10 Conc. (nM) -0.52): 93.15% and 99.90%
- % Growth (22Rv1-SamR cells; Log10 Conc. (nM) -1.12): 93.43% and 95.60%
- % Growth (MCF7-CDK7-D97N cells; Log10 Conc. (nM) 0.09): 97.12% and 98.47% and 91.37%
- % Growth (MCF7-CDK7-D97N cells; Log10 Conc. (nM) 0.69): 86.82% and 92.10% and 89.13%
- % Growth (MCF7-CDK7-D97N cells; Log10 Conc. (nM) 1.29): 76.30% and 76.07% and 72.54%
- % Growth (MCF7-CDK7-D97N cells; Log10 Conc. (nM) 1.89): 35.33% and 47.81% and 46.77%
- % Growth (MCF7-CDK7-D97N cells; Log10 Conc. (nM) 2.49): -1.00% and 8.40% and 7.81%
- % Growth (MCF7-CDK7-D97N cells; Log10 Conc. (nM) -0.52): 99.89% and 102.56% and 100.45%
- % Growth (MCF7-CDK7-D97N cells; Log10 Conc. (nM) -1.12): 96.07% and 101.58% and 94.36%
- % Growth (22Rv1 cells; Log10 Conc. (nM) 0.09): 93.20% and 88.05%
- % Growth (22Rv1 cells; Log10 Conc. (nM) 0.69): 85.45% and 77.80%
- % Growth (22Rv1 cells; Log10 Conc. (nM) 1.29): 56.44% and 44.90%
- % Growth (22Rv1 cells; Log10 Conc. (nM) 1.89): 5.80% and -0.07%
- % Growth (22Rv1 cells; Log10 Conc. (nM) 2.49): -4.12% and -6.31%
- % Growth (22Rv1 cells; Log10 Conc. (nM) 3.10): -6.49% and -7.67%
- % Growth (22Rv1 cells; Log10 Conc. (nM) 3.70): -6.63% and -7.61%
- % Growth (22Rv1 cells; Log10 Conc. (nM) -0.52): 98.36% and 93.94%
- % Growth (22Rv1 cells; Log10 Conc. (nM) -1.12): 96.18% and 94.83%
- % Growth (MCF7 cells; Log10 Conc. (nM) 0.09, 4 days): 91.30% and 94.59% and 94.55%
- % Growth (MCF7 cells; Log10 Conc. (nM) 0.69, 4 days): 87.28% and 92.52% and 92.40%
- % Growth (MCF7 cells; Log10 Conc. (nM) 1.29, 4 days): 80.95% and 90.37% and 89.19%
- % Growth (MCF7 cells; Log10 Conc. (nM) 1.89, 4 days): 64.20% and 77.72% and 79.90%
- % Growth (MCF7 cells; Log10 Conc. (nM) 3.10, 4 days): -9.63% and -1.23% and -2.34%
- % Growth (MCF7 cells; Log10 Conc. (nM) 3.70, 4 days): -9.74% and -3.96% and -4.65%
- % Growth (MCF7 cells; Log10 Conc. (nM) -0.52, 4 days): 92.77% and 97.61% and 102.10%
- % Growth (MCF7 cells; Log10 Conc. (nM) -1.12, 4 days): 92.06% and 94.91% and 96.97%
